# Test results published in patent US7642277B2, “Non-nucleoside reverse transcriptase inhibitors” (Boehringer Ingelheim International GmbH, priority 2002, dated 2010).
# Read-outs that look alike come from different tables or passages of the source.
# Assays:
# [1] = test system: HIV-1 (wild type); assay: P24 cellular assay (EC50), data identified with * in Table 9, wild type; assay type: cell-based
# Description: (§1) P24 Cellular Assay (EC50) (Data Identified with * in Table 9).
# (§2) The p24 assay is as described in WO 01/96338, the contents of which are herein incorporated by reference.
# (§3) The results are listed in Table 9 as IC50(nM) and EC50 (nM).
# (§4) Table legend: A=>100; B=100-50; C=<50; NT=not tested
# [2] = test system: HIV-1 resistant mutant K103N/Y181C; assay: P24 cellular assay (EC50), data identified with * in Table 9, resistant mutant; assay type: cell-based; conditions: Human immunodeficiency virus 1, read-out: EC50 K103N/Y181C
# Description: as §1, §2, §3, §4
# [3] = molecular target: T1, HIV-1 RT resistant mutant K103N/Y181C (Human immunodeficiency virus type 1 group M subtype B, UniProt P04585, K690N/Y768C); assay: Reverse transcriptase (RT) enzymatic assay (IC50), PicoGreen fluorescence, resistant mutant; assay type: biochemical
# T1 construct: The reverse transcriptase (RT) enzyme assay has been adapted to a 96-well microtiter plate format
# [4] = molecular target: T2, HIV-1 RT enzyme (wild type) (Human immunodeficiency virus type 1 group M subtype B, UniProt P04585); assay: Reverse transcriptase (RT) enzymatic assay (IC50), PicoGreen fluorescence, wild type; assay type: biochemical
# T2 construct: The reverse transcriptase (RT) enzyme assay has been adapted to a 96-well microtiter plate format
# Summary of the method: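 Enzyme at ≈10 nM in 50 mM Tris/HCl pH 7.8 with 60 mM NaCl, 2 mM MgCl2, 6 mM DTT, 2 mM GSH, 0.02% Chaps; 15 min preincubation with compound at room temperature, then substrate added and run 50 min at 37 °C. EDTA quench; product DNA read by PicoGreen fluorescence.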
# [5] = test system: HIV-1 resistant mutant K103N/Y181C in C8166 LTRluc cells; assay: C8166 HIV-1 luciferase assay (EC50), resistant mutant; assay type: cell-based; conditions: Human immunodeficiency virus 1, C8166, read-out: EC50 K103N/Y181C
# [6] = test system: HIV-1 (wild type) in C8166 LTRluc cells; assay: C8166 HIV-1 luciferase assay (EC50), wild type; assay type: cell-based; conditions: Human immunodeficiency virus 1, C8166 HIV-1 luciferase assay (no *)
# Summary of the method: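 C8166 cells carrying an HIV-1 LTR-driven luciferase reporter, infected at moi 0.005 for 1.5 h, then cultured 3 days at 37 °C with 11-point 2.5-fold inhibitor dilutions (≤0.1% DMSO) in triplicate, 25,000 cells/well. Luminescence gives % inhibition; EC50, slope and Imax from non-linear regression.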
# [7] = RT enzymatic assay, wild type, read-out: IC50 WT
Structure (SMILES),EC50 ([1]; Human immunodeficiency virus 1) [nM],EC50 [2] [nM],IC50 [3] [nM],IC50 [4] [nM],"IC50 [4, 7] [nM]",EC50 [1] [nM],EC50 [5] [nM],EC50 [6] [nM]
"O=C(CSc1nnnn1-c1cccc2ccccc12)Nc1ccccc1[N+](=O)[O-] [Entry 101, 2-{{1-(1-Naphthalenyl)-1H-tetrazol-5-yl}thio}-N-(2-nitrophenyl)acetamide]",< 50,> 100,–,–,–,–,–,–
Cc1c(Cl)cccc1-n1nnnc1SCC(=O)Nc1ccccc1[N+](=O)[O-] [Entry 124],< 50,50 to 100,> 100,< 50,–,–,–,–
"Clc1ccccc1[C@@H]1C[C@H]1CSc1nnnn1-c1cccc2ccccc12 (relative stereo) [Entry 316, trans-5-{{{2-(2-Chlorophenyl)cyclopropyl}methyl}thio}-1-(1-naphthalenyl)-1H-tetrazole]",< 50,–,> 100,50 to 100,–,–,–,–
O=C(CSc1nnnn1-c1ccccc1F)Nc1ccccc1[N+](=O)[O-] [Entry 113],< 50,–,> 100,< 50,–,–,–,–
Cc1ccc(-n2nnnc2SCC(=O)Nc2ccccc2[N+](=O)[O-])c(C)c1 [Entry 125],< 50,> 100,> 100,< 50,–,–,–,–
CSc1ccccc1-n1nnnc1SCC(=O)Nc1ccccc1[N+](=O)[O-] [Entry 116],< 50,–,> 100,< 50,–,–,–,–
O=C(CSc1nnnn1-c1cccc2ccccc12)Nc1ccc(Cl)cc1Cl [Entry 234],50 to 100,> 100,–,50 to 100,–,–,–,–
Cc1ccc(-n2nnnc2SCC(=O)Nc2ccccc2[N+](=O)[O-])c(Br)c1 [Entry 130],< 50,–,> 100,< 50,–,–,–,–
O=C(CSc1nnnn1-c1cccc2ccccc12)Nc1cccc(F)c1F [Entry 230],50 to 100,> 100,–,50 to 100,–,–,–,–
"OC(CCSc1nnnn1-c1cccc2ccccc12)c1ccccc1Cl (centres unmarked) [Entry 317, 5-{{3-(2-Chlorophenyl)-3-hydroxypropyl}thio}-1-(1-naphthalenyl)-1H-tetrazole]",< 50,–,> 100,50 to 100,–,–,–,–
COC(=O)c1ccccc1-n1nnnc1SCC(=O)Nc1ccccc1[N+](=O)[O-] [Entry 117],–,> 100,> 100,–,< 50,–,–,–
O=C(CSc1nnnn1-c1cccc(Cl)c1Cl)Nc1ccccc1[N+](=O)[O-] [Entry 123],–,50 to 100,> 100,–,< 50,–,–,–
O=C(CSc1nnnn1-c1cccc2ccccc12)Nc1ccccc1Br [Entry 209],> 100,–,–,< 50,–,–,–,–
CN(C)c1ccc(-n2nnnc2SCC(=O)Nc2ccccc2[N+](=O)[O-])c2ccccc12 [Entry 102],< 50,–,> 100,< 50,–,–,–,–
"O=C(CSc1nc(-c2cccc3ccccc23)c[nH]1)Nc1ccccc1[N+](=O)[O-] [Entry 401, 2-{{4-(1-Naphthalenyl)-1H-imidazol-2-yl}thio}-N-(2-nitrophenyl)acetamide]",–,–,–,–,–,< 50,–,–
Cc1ccc(-n2nnnc2SCC(=O)Nc2ccc(C(N)=O)cc2Cl)c(Cl)c1 [Entry 504],–,–,> 100,–,< 50,–,< 50,< 50
S=C(CSc1nnnn1-c1cccc2ccccc12)Nc1ccccc1Cl [Entry 308],50 to 100,–,–,> 100,–,–,–,–
CC(C)S(=O)(=O)c1ccc(NC(=O)CSc2nnnn2-c2ccc(C(C)(C)C)cc2Cl)c(Cl)c1 [Entry 607],–,–,> 100,–,< 50,–,50 to 100,< 50
Cc1nnc(SCC(=O)Nc2ccc(S(C)(=O)=O)cc2Cl)n1-c1ccc(C(C)(C)C)cc1Cl [Entry 431],–,–,50 to 100,–,< 50,–,< 50,< 50

Structure (SMILES),EC50 ([1]; Human immunodeficiency virus 1) [nM],EC50 [2] [nM],IC50 [3] [nM],IC50 [4] [nM],"IC50 [4, 7] [nM]",EC50 [1] [nM],EC50 [5] [nM],EC50 [6] [nM]
O=C(COc1ccccc1-c1cccc2ccccc12)Nc1ccccc1[N+](=O)[O-] [Entry 409],> 100,–,–,–,> 100,–,–,–
Cc1ccc(-n2nnnc2SCC(=O)Nc2ccc(C(=O)O)cc2[N+](=O)[O-])c(Cl)c1 [Entry 507],–,–,> 100,–,< 50,–,> 100,< 50
"OC(CSc1nnnn1-c1cccc2ccccc12)Cc1ccccc1Cl (centres unmarked) [Entry 318, 5-{{3-(2-Chlorophenyl)-2-hydroxypropyl}thio}-1-(1-naphthalenyl)-1H-tetrazole]",< 50,–,> 100,50 to 100,–,–,–,–
Cc1ccc(-n2nnnc2SCC(=O)Nc2ccc(C(N)=O)cc2[N+](=O)[O-])c(Cl)c1 [Entry 508],–,–,50 to 100,–,< 50,–,< 50,< 50
O=C(CSc1nnnn1-c1cccc2ccccc12)Nc1ccc(-c2ccccc2)cc1Cl [Entry 238],–,–,> 100,–,< 50,–,> 100,50 to 100
Cc1ccc(-n2nnnc2SCC(=O)Nc2ccc(-c3cccnc3)cc2Cl)c(Cl)c1 [Entry 512],–,–,> 100,–,< 50,–,> 100,< 50
COC(=O)c1ccc(NC(=O)CSc2nnnn2-c2cccc3ccccc23)c(Cl)c1 [Entry 235],< 50,–,> 100,< 50,–,–,–,–
Cc1ccc(-n2c(CCO)nnc2SCC(=O)Nc2ccc(-c3ccccc3)cc2Cl)c(Cl)c1 [Entry 429],–,–,> 100,–,< 50,–,> 100,< 50
Cc1nnc(SCC(=O)Nc2ccccc2Cl)n1-c1ccc(C(C)(C)C)cc1Cl [Entry 430],–,–,50 to 100,–,< 50,–,50 to 100,< 50
O=C(COc1nnnn1-c1cccc2ccccc12)Nc1ccccc1[N+](=O)[O-] [Entry 302],50 to 100,–,–,–,–,–,–,–
Cc1cccc(Cl)c1-n1nnnc1SCC(=O)Nc1ccccc1[N+](=O)[O-] [Entry 139],< 50,–,> 100,< 50,–,–,–,–
CN1CCN(c2ccc(NC(=O)CSc3nnnn3-c3ccc(C(C)(C)C)cc3Cl)c(Cl)c2)CC1 [Entry 610],–,–,> 100,–,< 50,–,> 100,< 50
CC(C)(C)c1ccc(-n2nnnc2SCC(=O)Nc2ccc(S(=O)(=O)c3ccccc3)cc2Cl)c(Cl)c1 [Entry 606],–,–,50 to 100,–,< 50,–,50 to 100,< 50
O=C(CSc1nnnn1-c1cccc2ccccc12)Nc1ccc(O)cc1Cl [Entry 246],–,–,> 100,–,< 50,–,> 100,< 50
Cc1ccc(-n2nnnc2SCC(=O)Nc2ccc(-c3ccccc3)cc2C)c(Cl)c1 [Entry 511],–,–,> 100,–,< 50,–,> 100,< 50
"OC(CNc1ccccc1Cl)CSc1nnnn1-c1cccc2ccccc12 (centres unmarked) [Entry 330, 5-{{3-{(2-Chlorophenyl)amino}-2-hydroxypropyl}thio}-1-(1-naphthalenyl)-1H-tetrazole]",< 50,–,> 100,50 to 100,–,–,–,–
Cc1ccc(-n2nnnc2SCC(=O)Nc2ccc(S(C)(=O)=O)cc2Cl)c(Cl)c1 [Entry 509],–,–,> 100,–,< 50,–,> 100,< 50
O=C(CSc1nnnn1-c1cccc2ccccc12)Nc1ccccc1I [Entry 210],< 50,> 100,–,50 to 100,–,–,–,–
